The target of the assay is T1, Human FXRα Ligand Binding Domain (FXRα LBD) (Homo sapiens, UniProt Q96RI1).
T1 construct: polyhistidine (N); made in house; host or cells: E. coli BL21 (DE3), pRSET-A vector
T1 sequence (Q96RI1 222-472 isoform Q96RI1-2): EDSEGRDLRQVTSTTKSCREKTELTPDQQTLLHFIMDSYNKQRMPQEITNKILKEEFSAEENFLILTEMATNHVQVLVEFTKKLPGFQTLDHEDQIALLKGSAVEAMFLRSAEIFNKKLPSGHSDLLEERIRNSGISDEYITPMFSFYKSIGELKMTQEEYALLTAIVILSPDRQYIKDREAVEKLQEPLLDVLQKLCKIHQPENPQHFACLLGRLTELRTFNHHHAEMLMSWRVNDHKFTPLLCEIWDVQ
Briefly: FXR Affinity Binding Assay: ligand mediated cofactor peptide (SRC-1 LCD2, 676-700) interaction, time resolved fluorescence. The following applies: FXRα LBD-APC / europium labeled SRC-1 peptide, TRF signal, at least 2 hours at room temperature; read-out: Activity (pEC50) (converted).
For `COC(=O)c1ccc(S(=O)(=O)Nc2ccc(OCc3c(-c4c(Cl)cccc4Cl)noc3C(C)C)cc2)cc1` [Example 55, Methyl 4-{[(4-{[3-(2,6-dichlorophenyl)-5-isopropylisoxazol-4-yl]methoxy}phenyl)-amino]sulfonyl}benzoate], the EC50 is 1020 to 10000 nM.

Regarding `COC(=O)c1cccc(SCc2ccc(OCc3c(-c4ccccc4OC(F)(F)F)noc3C(C)C)cc2Cl)c1` [Example 88, Methyl 3-{[2-chloro-4-({5-isopropyl-3-[2-(trifluoro-methoxy)phenyl]isoxazol-4-yl}methoxy)benzyl]thio}benzoate], the EC50 is 102 to 1000 nM.

Consider `COC(=O)c1ccc(C(=O)Nc2ccc(OCc3c(-c4c(Cl)cccc4Cl)noc3C(C)C)cc2Cl)cc1` [Example 25, Methyl 4-[(2-chloro-4-{[3-(2,6-dichlorophenyl)-5-isopropyl-4-isoxazolyl]methoxy}anilino)carbonyl]benzoate], for which the EC50 is 102 to 1000 nM.

For the compound `Cc1cc(OCc2c(-c3c(Cl)cccc3Cl)noc2C(C)C)ccc1NC(=O)c1cccc(C(=O)O)c1` [Example 26, 3-[(4-{[3-(2,6-Dichlorophenyl)-5-isopropyl-4-isoxazolyl]methoxy}-2-methylanilino)carbonyl]benzoic acid], the EC50 is 1020 to 10000 nM.

Take `CC(C)c1onc(-c2c(Cl)cccc2Cl)c1COc1ccc(CSc2ccc(C(=O)O)cc2)c(Cl)c1` [Example 82, 4-[(2-Chloro-{[3-(2,6-dichlorophenyl)-5-isopropylisoxazol-4-yl]methoxy}benzyl)thio]-benzoic acid]: the EC50 is 102 to 1000 nM.

These data come from US7319109B2, “Farnesoid X receptor agonists” (Smith Kline Beecham Corporation, priority 2002, dated 2008).
